# Reference: patent US7776913B2, “Carnitines for treating or preventing disorders caused by andropause” (Sigma-Tau Industrie Farmaceutiche Riunite S.p.A., priority 2002, dated 2010)
# Legend:
# [1] = system: Patients aged over 60 years with lowered blood concentrations of free and total testosterone; assay: Total blood prostate-specific antigen (PSA) in the clinical trial; conditions: for PSA: mean ± SD, 15 patients
# Excerpt: (§1) Reported here below is a clinical trial conducted in order to evaluate the activity of the combination according to the association in the treatment of the symptoms of male ageing.
# (§2) Patients aged over 60 years with lowered blood concentrations of free and total testosterone (The Aging Male 4: 151-162, 2001) and complaining of symptoms figuring in the working definition of andropause proposed by the International Society for the Study of the Aging Male (I.S.S.A.M.) (The Aging Male 4: 151-162, 2001): reduced libido or sex drive and erectile function, depressed mood, difficulty concentrating, irritability and fatigue.
# (§3) The above-mentioned compounds were presented to the patients in anonymous containers and administered for 6 months.
# (§4) Medical history-taking and physical examinations were done for all patients. The following data were also collected prior to the start of treatment, after 1, 3 and 6 months of treatment: • 1. Total blood prostate-specific antigen (PSA) (ng/ml) as measured with the automatic test and monoclonal antibodies [Rigatti P., Scattoni V.: PSA: Antigene prostatico specifico. Edizioni Medico Scientifiche (EDIMES) Pavia, 1997]. • 2. Prostate volume (cm^3) as measured by suprapubic ultrasonography and calculated by means of the three diameters rule [Rigatti P. Scattoni V.: PSA: Antigene prostatico specifico. Edizioni Medico Scientifiche (EDIMES) Pavia, 1997]. • 3. Peak systolic volume (PSV) (cm/sec), end-diastolic velocity (EDV) (cm/sec), and Resistance Index (RI) (%) of the penile arteries (right and left cavernous e dorsal) as measured by means of penile basal and dynamic colour Doppler ultrasonography. RI was calculated as follows: (PSV-EDV/EDV)×100 (Urology 1997: 49: 822-830). • 4. Duration of full erections (in minutes) in the course of a recording period of three nights performed with Rigiscan. […] Free and total blood testosterone, LH and prolactin levels (The Aging Male 4: 151-162, 2001). • 6. Sexual function was checked by means of semistructured interviews and administration of the International Index of Erectile Function (IIEF-15) (Urology 1997: 49: 822-830). A score was calculated for each patient. • 7. Depression was quantified by means of the Hamilton Depression Scale questionnaire (DMS III) (Cancer 94: 2481-2489, 2002). A score was calculated for each patient. • 8. The subjective sensation of fatigue was calculated using the fatigue scale (Lison L.: Statistica applicata alla biologia sperimentale. Milano: Casa Editrice Ambrosiana, 1972). A score was calculated for each patient. • 9. Side effects. […]
# [2] = system: Patients aged over 60 years with lowered blood concentrations of free and total testosterone; assay: Blood levels of LH; assay type: in vivo, human; conditions: for LH: blood, mean ± SD
# Excerpt: as §1, §2, §3
# (§5) Medical history-taking and physical examinations were done for all patients. The following data were also collected prior to the start of treatment, after 1, 3 and 6 months of treatment: • 1. Total blood prostate-specific antigen (PSA) (ng/ml) as measured with the automatic test and monoclonal antibodies [Rigatti P., Scattoni V.: PSA: Antigene prostatico specifico. Edizioni Medico Scientifiche (EDIMES) Pavia, 1997]. • 2. Prostate volume (cm^3) as measured by suprapubic ultrasonography and calculated by means of the three diameters rule [Rigatti P. Scattoni V.: PSA: Antigene prostatico specifico. Edizioni Medico Scientifiche (EDIMES) Pavia, 1997]. • 3. Peak systolic volume (PSV) (cm/sec), end-diastolic velocity (EDV) (cm/sec), and Resistance Index (RI) (%) of the penile arteries (right and left cavernous e dorsal) as measured by means of penile basal and dynamic colour Doppler ultrasonography. RI was calculated as follows: (PSV-EDV/EDV)×100 (Urology 1997: 49: 822-830). • 4. Duration of full erections (in minutes) in the course of a recording period of three nights performed with Rigiscan. […] Free and total blood testosterone, LH and prolactin levels (The Aging Male 4: 151-162, 2001). • 6. Sexual function was checked by means of semistructured interviews and administration of the International Index of Erectile Function (IIEF-15) (Urology 1997: 49: 822-830). A score was calculated for each patient. • 7. Depression was quantified by means of the Hamilton Depression Scale questionnaire (DMS III) (Cancer 94: 2481-2489, 2002). A score was calculated for each patient. • 8. The subjective sensation of fatigue was calculated using the fatigue scale (Lison L.: Statistica applicata alla biologia sperimentale. Milano: Casa Editrice Ambrosiana, 1972). A score was calculated for each patient. • 9. Side effects.
# (§6) Blood concentrations of PSA, free and total testosterone, prolactin LH, prostate volume, PSV, EDV, RI, full erection duration, IIEF-15, DMS III, and fatigue scale scores were compared between and within groups by means of factorial analysis of variance for randomised blocks (1 patient=1 block). Comparison of the mean values was done on the raw data with the exclusion of RI which used data subjected to angular transformation (sin^−1 √P/100) for the comparisons. Side effects were compared using the chi-square etst (Lison L.: Statistica applicata alla biologia sperimentale. Milano: Casa Editrice Ambrosiana, 1972).
# [3] = system: Patients aged over 60 years with lowered blood concentrations of free and total testosterone; assay: Blood levels of free testosterone; assay type: in vivo, human; conditions: mean ± SD
# Excerpt: as §1, §2, §3
# (§7) Medical history-taking and physical examinations were done for all patients. The following data were also collected prior to the start of treatment, after 1, 3 and 6 months of treatment: • 1. Total blood prostate-specific antigen (PSA) (ng/ml) as measured with the automatic test and monoclonal antibodies [Rigatti P., Scattoni V.: PSA: Antigene prostatico specifico. Edizioni Medico Scientifiche (EDIMES) Pavia, 1997]. • 2. Prostate volume (cm^3) as measured by suprapubic ultrasonography and calculated by means of the three diameters rule [Rigatti P. Scattoni V.: PSA: Antigene prostatico specifico. […] Peak systolic volume (PSV) (cm/sec), end-diastolic velocity (EDV) (cm/sec), and Resistance Index (RI) (%) of the penile arteries (right and left cavernous e dorsal) as measured by means of penile basal and dynamic colour Doppler ultrasonography. RI was calculated as follows: (PSV-EDV/EDV)×100 (Urology 1997: 49: 822-830). • 4. […] A score was calculated for each patient. • 7. Depression was quantified by means of the Hamilton Depression Scale questionnaire (DMS III) (Cancer 94: 2481-2489, 2002). A score was calculated for each patient. • 8. The subjective sensation of fatigue was calculated using the fatigue scale (Lison L.: Statistica applicata alla biologia sperimentale. Milano: Casa Editrice Ambrosiana, 1972). A score was calculated for each patient. • 9. […]
# [4] = system: Patients aged over 60 years with lowered blood concentrations of free and total testosterone; assay: Duration of full nocturnal erections, three nights by Rigiscan; assay type: in vivo, human; conditions: for Duration of full erections: three nights by Rigiscan, mean ± SD
# Excerpt: as §1, §2, §3, §4
# [5] = system: Patients aged over 60 years with lowered blood concentrations of free and total testosterone; assay: Hamilton Depression Scale questionnaire (DMS III); assay type: in vivo, human; conditions: for Hamilton Depression Scale questionnaire (DMS III) score: mean ± SD
# Excerpt: as §1, §2, §3, §5, §6
# [6] = system: Patients aged over 60 years with lowered blood concentrations of free and total testosterone; assay: Prostate volume by suprapubic ultrasonography (three diameters rule); conditions: mean ± SD
# Excerpt: as §1, §2, §3, §7
# [7] = system: Patients aged over 60 years with lowered blood concentrations of free and total testosterone; assay: Penile dynamic colour Doppler ultrasonography (PSV, EDV, RI of cavernous arteries); assay type: in vivo, human; conditions: mean ± SD
# Excerpt: as §1, §2, §3, §5, §6
substance,measurement,setting,value
testosterone undecaonate,PSA,[1]; 3 months of therapy,2.01 ± 0.79 ng/mL
same,PSA,[1]; 6 months of therapy,2.02 ± 0.85 ng/mL
same,PSA,[1]; before therapy,2.02 ± 0.74 ng/mL
same,Change in blood PSA levels (in words),[1]; during and after therapy vs before,did not significantly increase
same,Change in blood levels of LH (in words),"[2]; at 3 months, F=229 P<0.01",statistically significant reduction
same,Change in blood levels of LH (in words),[2]; at 6 months,significant reduction
same,LH,[2]; 3 months of therapy,4.3 ± 0.6 IU/l
same,LH,[2]; 6 months of therapy,4.2 ± 1.2 IU/l
same,LH,[2]; before therapy,8.9 ± 0.6 IU/l
same,Free blood testosterone,[3]; 3 months of therapy,19.5 ± 4.2 pg/mL
same,Free blood testosterone,[3]; 6 months of therapy,19.7 ± 4.0 pg/mL
same,Free blood testosterone,[3]; before therapy,4.4 ± 0.8 pg/mL
same,Duration of full erections,[4]; 3 months of therapy,112.7 ± 21.1 min
same,Duration of full erections,[4]; 6 months of therapy,119.6 ± 26.0 min
same,Change in duration of full nocturnal erections (in words),[4]; at 6 months,significant increase
same,Duration of full erections,[4]; before therapy,108.3 ± 18.7 min
same,Hamilton Depression Scale questionnaire (DMS III) score,[5]; 3 months of therapy,5.8 ± 0.7
same,Hamilton Depression Scale questionnaire (DMS III) score,[5]; 6 months of therapy,5.1 ± 1.3
same,Change in DMS III scores (in words),"[5]; at 3 months, F=4.07, P<0.05",significant decrease
same,Significant decrease in DMS III scores (in words),"[5]; at 6 months, F=2.5, P=n.s.",but not at 6 months
same,DMS III score compared between groups,"[5]; at 6 months, comparison with placebo (and testosterone)",No significant difference
same,Hamilton Depression Scale questionnaire (DMS III) score,[5]; before therapy,6.6 ± 1.0
same,Prostate volume,[6]; 3 months of therapy,15.5 ± 3.0 cm^3
same,Prostate volume,[6]; 6 months of therapy,15.5 ± 2.6 cm^3
same,Prostate volume,[6]; before therapy,15.3 ± 2.8 cm^3
same,Left cavernous PSV,[7]; 3 months of therapy,32.6 ± 4.2 cm/sec
same,Left cavernous artery EDV,[7]; 3 months of therapy,7.5 ± 3.3 cm/s
same,Right cavernous artery EDV,[7]; 3 months of therapy,7.9 ± 3.6 cm/s
same,Right cavernous artery PSV,[7]; 3 months of therapy,32.8 ± 4.2 cm/sec
same,Left cavernous PSV,[7]; 6 months of therapy,33.5 ± 3.5 cm/sec
same,Left cavernous artery EDV,[7]; 6 months of therapy,7.4 ± 3.3 cm/s
same,Right cavernous artery EDV,[7]; 6 months of therapy,7.9 ± 3.6 cm/s
same,Right cavernous artery PSV,[7]; 6 months of therapy,33.7 ± 3.7 cm/sec
same,Left cavernous PSV,[7]; before therapy,33.6 ± 3.7 cm/sec
same,Left cavernous artery EDV,[7]; before therapy,7.7 ± 3.5 cm/s
same,Right cavernous artery EDV,[7]; before therapy,7.8 ± 3.6 cm/s
same,Right cavernous artery PSV,[7]; before therapy,33.2 ± 3.9 cm/sec
